# Measurements as given in PMC10174618, “Monoterpenoid aryl hydrocarbon receptor allosteric antagonists protect against ultraviolet skin damage in female mice” (Nature Communications, 2023).
# Key:
# Assay in all cases: biochemical
# Design in all cases: KINOMEscan scanMAX active site-directed competition binding assay, percent of control, 468 kinases
# Conditions in all cases: competition binding, percent of control
# AMPK-alpha1 = target: T1, AMPK-alpha1 (Homo sapiens, UniProt Q13131)
# T1 construct: gene PRKAA1
# In short: (§1)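 Single-concentration screen (100 μM S-carvone) in a competition binding panel of 468 human kinases (KINOMEscan scanMAX); results given as percent of control, hit cutoff 35%.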
# BIKE = target: T2, BIKE (Homo sapiens, UniProt Q9NSY1)
# T2 construct: gene BMP2K
# In short: as §1
# CDK7 = CDK7 (Homo sapiens, UniProt P50613)
# In short: as §1
# DCAMKL1 = target: T3, DCAMKL1 (Homo sapiens, UniProt O15075)
# T3 construct: gene DCLK1
# In short: as §1
# ERK3 = target: T4, ERK3 (Homo sapiens, UniProt Q16659)
# T4 construct: gene MAPK6
# In short: as §1
# FLT4 = FLT4 (Homo sapiens, UniProt P35916)
# In short: as §1
# JNK2 = target: T5, JNK2 (Homo sapiens, UniProt P45984)
# T5 construct: gene MAPK9
# In short: as §1
# MAP3K4 = MAP3K4 (Homo sapiens, UniProt Q9Y6R4)
# In short: as §1
# MARK4 = MARK4 (Homo sapiens, UniProt Q96L34)
# In short: as §1
# MLK3 = target: T6, MLK3 (Homo sapiens, UniProt Q16584)
# T6 construct: gene MAP3K11
# In short: as §1
# NEK7 = NEK7 (Homo sapiens, UniProt Q8TDX7)
# In short: as §1
# PIK3CA(H1047Y) = PIK3CA(H1047Y) (Homo sapiens, UniProt P42336, H1047Y)
# In short: as §1
# PIK3CA(M1043I) = PIK3CA(M1043I) (Homo sapiens, UniProt P42336, M1043I)
# In short: as §1
# PIK4CB = target: T7, PIK4CB (Homo sapiens, UniProt Q9UBF8)
# T7 construct: gene PI4KB
# In short: as §1
# PIM1 = PIM1 (Homo sapiens, UniProt P11309)
# In short: as §1
# RET(V804M) = RET(V804M) (Homo sapiens, UniProt P07949, V804M)
# In short: as §1
# [1] = target: T8, RSK2(Kin.Dom.1-N-terminal) (Homo sapiens, UniProt P51812)
# T8 construct: gene RPS6KA3; Kin.Dom.1-N-terminal
# In short: as §1
# SNRK = SNRK (Homo sapiens, UniProt Q9NRH2)
# In short: as §1
# SYK = SYK (Homo sapiens, UniProt P43405)
# In short: as §1
# TBK1 = TBK1 (Homo sapiens, UniProt Q9UHD2)
# In short: as §1
# VRK2 = VRK2 (Homo sapiens, UniProt Q86Y07)
# In short: as §1
# T7 sequence (Q9UBF8 whole entry): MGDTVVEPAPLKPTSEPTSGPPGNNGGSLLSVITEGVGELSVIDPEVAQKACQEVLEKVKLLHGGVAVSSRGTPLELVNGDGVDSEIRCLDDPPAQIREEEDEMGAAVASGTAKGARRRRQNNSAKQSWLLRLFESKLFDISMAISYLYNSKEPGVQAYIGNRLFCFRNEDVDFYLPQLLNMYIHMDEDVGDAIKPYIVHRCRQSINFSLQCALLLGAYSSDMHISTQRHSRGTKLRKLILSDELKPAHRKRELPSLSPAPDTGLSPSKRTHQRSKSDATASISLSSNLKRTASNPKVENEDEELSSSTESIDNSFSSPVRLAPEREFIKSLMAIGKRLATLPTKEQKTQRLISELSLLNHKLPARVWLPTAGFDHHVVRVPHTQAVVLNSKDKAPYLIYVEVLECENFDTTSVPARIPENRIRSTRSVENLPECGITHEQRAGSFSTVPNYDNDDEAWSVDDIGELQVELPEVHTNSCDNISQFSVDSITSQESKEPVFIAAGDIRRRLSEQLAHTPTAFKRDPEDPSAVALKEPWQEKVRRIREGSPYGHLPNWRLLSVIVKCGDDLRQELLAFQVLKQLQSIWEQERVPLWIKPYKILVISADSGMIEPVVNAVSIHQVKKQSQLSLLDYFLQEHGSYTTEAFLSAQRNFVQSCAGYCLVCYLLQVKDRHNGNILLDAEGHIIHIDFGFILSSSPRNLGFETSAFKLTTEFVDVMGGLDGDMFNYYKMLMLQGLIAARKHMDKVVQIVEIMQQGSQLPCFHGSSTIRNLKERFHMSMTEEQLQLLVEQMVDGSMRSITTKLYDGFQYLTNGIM
# Chain of MAP3K4 (Q9Y6R4 whole entry): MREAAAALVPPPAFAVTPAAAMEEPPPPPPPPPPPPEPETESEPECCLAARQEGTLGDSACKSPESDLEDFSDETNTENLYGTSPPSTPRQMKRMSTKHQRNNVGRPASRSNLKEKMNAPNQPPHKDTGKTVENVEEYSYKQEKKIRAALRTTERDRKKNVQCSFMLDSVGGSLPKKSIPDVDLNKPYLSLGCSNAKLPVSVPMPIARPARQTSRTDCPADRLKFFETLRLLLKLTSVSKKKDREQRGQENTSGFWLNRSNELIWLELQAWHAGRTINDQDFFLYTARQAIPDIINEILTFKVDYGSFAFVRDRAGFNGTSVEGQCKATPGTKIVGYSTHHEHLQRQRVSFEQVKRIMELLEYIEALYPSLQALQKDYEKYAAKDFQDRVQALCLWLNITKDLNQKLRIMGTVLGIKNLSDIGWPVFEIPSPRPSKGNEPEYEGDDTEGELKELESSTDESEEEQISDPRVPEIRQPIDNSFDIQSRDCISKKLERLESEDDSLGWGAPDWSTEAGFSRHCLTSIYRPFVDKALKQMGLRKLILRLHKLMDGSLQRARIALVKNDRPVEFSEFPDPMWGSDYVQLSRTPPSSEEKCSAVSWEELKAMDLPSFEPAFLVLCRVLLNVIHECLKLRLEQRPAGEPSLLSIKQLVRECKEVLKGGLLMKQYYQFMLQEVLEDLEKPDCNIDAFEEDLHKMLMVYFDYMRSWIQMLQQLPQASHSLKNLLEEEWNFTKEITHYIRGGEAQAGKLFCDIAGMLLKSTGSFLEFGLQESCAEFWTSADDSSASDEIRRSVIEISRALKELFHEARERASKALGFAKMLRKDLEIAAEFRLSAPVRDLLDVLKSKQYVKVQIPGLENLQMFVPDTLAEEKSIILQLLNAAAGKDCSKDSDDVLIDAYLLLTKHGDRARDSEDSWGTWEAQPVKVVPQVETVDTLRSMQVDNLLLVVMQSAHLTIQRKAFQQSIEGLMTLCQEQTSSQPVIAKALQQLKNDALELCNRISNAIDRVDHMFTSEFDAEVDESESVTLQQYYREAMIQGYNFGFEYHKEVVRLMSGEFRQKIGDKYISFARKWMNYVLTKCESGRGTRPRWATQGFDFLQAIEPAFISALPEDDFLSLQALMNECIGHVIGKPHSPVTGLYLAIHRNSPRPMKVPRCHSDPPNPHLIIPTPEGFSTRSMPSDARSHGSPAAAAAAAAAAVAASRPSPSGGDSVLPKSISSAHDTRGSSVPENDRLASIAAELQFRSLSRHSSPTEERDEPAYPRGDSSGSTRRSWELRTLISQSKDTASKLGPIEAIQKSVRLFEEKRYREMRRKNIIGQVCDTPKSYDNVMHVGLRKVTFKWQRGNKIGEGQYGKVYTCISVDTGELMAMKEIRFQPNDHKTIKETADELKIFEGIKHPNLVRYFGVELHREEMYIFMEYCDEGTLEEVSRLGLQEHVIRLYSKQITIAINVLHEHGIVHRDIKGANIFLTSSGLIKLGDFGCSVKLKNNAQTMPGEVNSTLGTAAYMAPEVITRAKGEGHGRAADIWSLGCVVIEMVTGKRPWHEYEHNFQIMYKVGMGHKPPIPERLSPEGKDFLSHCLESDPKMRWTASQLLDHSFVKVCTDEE
# T2 sequence (Q9NSY1 whole entry): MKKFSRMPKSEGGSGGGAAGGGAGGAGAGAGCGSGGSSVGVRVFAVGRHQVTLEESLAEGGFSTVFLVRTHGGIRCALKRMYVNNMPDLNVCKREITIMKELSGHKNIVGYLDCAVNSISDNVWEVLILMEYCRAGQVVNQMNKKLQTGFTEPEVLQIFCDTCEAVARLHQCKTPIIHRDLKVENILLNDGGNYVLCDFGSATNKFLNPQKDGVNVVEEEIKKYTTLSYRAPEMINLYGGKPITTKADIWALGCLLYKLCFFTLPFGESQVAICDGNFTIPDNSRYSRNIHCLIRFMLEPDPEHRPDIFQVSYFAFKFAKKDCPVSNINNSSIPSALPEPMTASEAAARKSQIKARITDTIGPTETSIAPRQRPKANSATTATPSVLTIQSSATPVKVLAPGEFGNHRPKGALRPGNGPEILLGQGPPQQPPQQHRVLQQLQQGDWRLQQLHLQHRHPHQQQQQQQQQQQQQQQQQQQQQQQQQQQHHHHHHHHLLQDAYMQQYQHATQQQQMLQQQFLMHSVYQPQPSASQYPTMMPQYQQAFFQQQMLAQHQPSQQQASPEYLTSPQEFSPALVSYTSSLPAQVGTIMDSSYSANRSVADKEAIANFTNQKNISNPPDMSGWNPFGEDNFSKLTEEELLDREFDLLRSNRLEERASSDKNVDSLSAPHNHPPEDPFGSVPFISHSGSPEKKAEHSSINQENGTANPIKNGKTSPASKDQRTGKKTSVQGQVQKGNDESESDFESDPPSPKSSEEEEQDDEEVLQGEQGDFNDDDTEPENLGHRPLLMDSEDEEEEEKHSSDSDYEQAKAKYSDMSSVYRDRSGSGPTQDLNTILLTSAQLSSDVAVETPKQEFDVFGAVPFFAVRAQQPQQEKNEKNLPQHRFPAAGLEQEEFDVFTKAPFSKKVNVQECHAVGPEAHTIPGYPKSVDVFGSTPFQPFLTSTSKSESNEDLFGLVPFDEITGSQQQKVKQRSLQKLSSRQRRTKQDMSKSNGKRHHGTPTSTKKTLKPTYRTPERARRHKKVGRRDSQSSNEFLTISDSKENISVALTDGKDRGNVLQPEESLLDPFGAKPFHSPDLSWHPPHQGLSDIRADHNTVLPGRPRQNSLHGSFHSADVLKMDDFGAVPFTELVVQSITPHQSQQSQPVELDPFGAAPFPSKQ
# Chain of CDK7 (P50613 whole entry): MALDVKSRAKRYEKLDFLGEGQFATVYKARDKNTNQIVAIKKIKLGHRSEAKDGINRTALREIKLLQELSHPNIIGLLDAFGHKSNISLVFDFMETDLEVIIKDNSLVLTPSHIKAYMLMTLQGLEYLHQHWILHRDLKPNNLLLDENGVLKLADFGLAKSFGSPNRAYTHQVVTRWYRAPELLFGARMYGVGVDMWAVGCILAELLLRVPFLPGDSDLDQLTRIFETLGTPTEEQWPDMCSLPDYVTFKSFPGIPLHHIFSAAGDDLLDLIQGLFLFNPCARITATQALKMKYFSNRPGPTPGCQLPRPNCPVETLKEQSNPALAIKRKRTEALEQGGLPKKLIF
# T6 sequence (Q16584 whole entry): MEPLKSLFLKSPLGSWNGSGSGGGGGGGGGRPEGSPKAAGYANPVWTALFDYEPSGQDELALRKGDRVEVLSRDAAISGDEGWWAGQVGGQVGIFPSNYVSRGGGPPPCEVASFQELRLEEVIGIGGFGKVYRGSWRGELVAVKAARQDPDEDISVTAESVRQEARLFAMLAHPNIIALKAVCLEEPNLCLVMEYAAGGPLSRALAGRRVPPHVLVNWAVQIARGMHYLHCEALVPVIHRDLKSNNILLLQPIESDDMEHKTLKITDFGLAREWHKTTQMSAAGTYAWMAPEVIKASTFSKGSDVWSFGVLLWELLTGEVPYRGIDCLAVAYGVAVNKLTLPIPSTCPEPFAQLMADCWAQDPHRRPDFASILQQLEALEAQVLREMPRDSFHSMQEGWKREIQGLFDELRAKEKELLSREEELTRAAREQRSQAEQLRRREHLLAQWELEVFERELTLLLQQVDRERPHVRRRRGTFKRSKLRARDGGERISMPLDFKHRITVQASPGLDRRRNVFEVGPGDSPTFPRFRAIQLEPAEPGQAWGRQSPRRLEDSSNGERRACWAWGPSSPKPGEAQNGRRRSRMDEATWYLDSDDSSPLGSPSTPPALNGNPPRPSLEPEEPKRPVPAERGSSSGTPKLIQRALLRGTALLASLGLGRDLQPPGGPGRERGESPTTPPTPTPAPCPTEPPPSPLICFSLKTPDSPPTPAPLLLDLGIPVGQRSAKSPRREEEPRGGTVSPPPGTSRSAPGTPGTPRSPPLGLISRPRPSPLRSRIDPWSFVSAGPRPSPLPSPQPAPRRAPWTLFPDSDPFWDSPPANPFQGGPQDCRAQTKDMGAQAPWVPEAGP
# Chain of NEK7 (Q8TDX7 whole entry): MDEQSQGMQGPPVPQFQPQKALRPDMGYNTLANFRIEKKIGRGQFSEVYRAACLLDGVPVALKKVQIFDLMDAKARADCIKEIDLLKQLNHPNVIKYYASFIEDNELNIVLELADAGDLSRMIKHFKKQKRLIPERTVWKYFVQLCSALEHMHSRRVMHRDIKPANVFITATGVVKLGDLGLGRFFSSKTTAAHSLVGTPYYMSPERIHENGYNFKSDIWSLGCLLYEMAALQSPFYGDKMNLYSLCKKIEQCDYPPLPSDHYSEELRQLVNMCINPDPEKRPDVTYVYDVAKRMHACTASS
smiles,measurement,setting,value
C=C(C)[C@H]1CC=C(C)C(=O)C1 [S-carvone],remaining binding at 100 µM,AMPK-alpha1,89%
same,remaining binding at 100 µM,BIKE,100%
same,remaining binding at 100 µM,CDK7,65%
same,remaining binding at 100 µM,DCAMKL1,85%
same,remaining binding at 100 µM,ERK3,73%
same,remaining binding at 100 µM,FLT4,90%
same,remaining binding at 100 µM,JNK2,95%
same,remaining binding at 100 µM,MAP3K4,79%
same,remaining binding at 100 µM,MARK4,73%
same,remaining binding at 100 µM,MLK3,73%
same,remaining binding at 100 µM,NEK7,74%
same,remaining binding at 100 µM,PIK3CA(H1047Y),92%
same,remaining binding at 100 µM,PIK3CA(M1043I),83%
same,remaining binding at 100 µM,PIK4CB,65%
same,remaining binding at 100 µM,PIM1,77%
same,remaining binding at 100 µM,RET(V804M),96%
same,remaining binding at 100 µM,[1],89%
same,remaining binding at 100 µM,SNRK,75%
same,remaining binding at 100 µM,SYK,75%
same,remaining binding at 100 µM,TBK1,64%
same,remaining binding at 100 µM,VRK2,81%
